Source: US20220073638A1, “METHODS AND PHARMACEUTICAL COMPOSITION FOR THE TREATMENT OF CANCERS RESISTANT TO IMMUNE CHECKPOINT THERAPY” (INSERM (INSTITUT NATIONAL DE LA SANTÉ ET DE LA RECHERCHE …, priority 2018, published 2022)

System: CD163+ TAMs
Format: in vivo, mouse
Experimental: To deplete CD163^+ TAM we generated knock-in mice expressing iCre recombinase from a Cd163-IRES-iCre transcript (CD163-iCre) and crossed them to Csflr-LSL-DTR mice that after cre-mediated deletion of LSL, have DTR expression under the control of the Csflr promotor. A single injection of 4 ng/kg diphteria toxin (DT) specifically depleted close to 50% of CD163+ TAMs after 24 hrs (data not shown). No effect, was observed on the remaining myeloid compartment except for a small increase in recruited monocytes (data not shown). Next, we attempted to achieve sustained depletion of CD163+ TAMs by repeated DT injections.

diphteria toxin [DT]
side effects of sustained depletion of CD163+ macrophages (repeated DT injections): severe side-effect | tumor growth (repeated DT injections, CD163-iCre+/-, Csf1r-LSL-DTR+/- mice compared to Csf1r-LSL-DTR wildtype mice): significantly reduced tumor growth | depletion of CD163+ TAMs (single injection of 4 ng/kg DT, after 24 hrs): ~50% | effect on the remaining myeloid compartment (single injection of 4 ng/kg DT, except for a small increase in recruited monocytes): No effect
